According to patent US8389558B2, “Bendamustine amphiphilic anionic compositions” (Supratek Pharma Inc., priority 2009, dated 2013):
Counter-ions that a name gives are not always drawn.

Columns and labels:
[1] = 23° C.; cited from earlier work
[2] = Bendamustine chemical stability in formulations with amphiphilic anionic agents and phosphate buffer (HPLC, first order kinetics); assay type: physicochemical; details: 0.6 mg/mL bendamustine, 1% (w/v) aqueous amphiphilic anionic agent, 6 mM phosphate buffer pH 7.2, 25° C.; read-out: decomposition half time (T½) of bendamustine
Description: Formulations were prepared by dissolving bendamustine hydrochloride in pre-equilibrated 1% (w/v) aqueous solution of amphiphilic anionic agent containing 6 mM phosphate buffer, pH 7.2. The final concentration of bendamustine was 0.6 mg/mL. The formulations were incubated at 25° C., and were periodically analyzed by HPLC as follows. 10 μL samples were separated using Waters SymmetryShield RP-18 3.5 μm column (4.6×50 mm) at the flow of 1.5 mL/min of acetonitrile-water gradient containing 0.1% TFA. Peak detection has been performed with means of UV absorption detection at 260 nm. The area of the peak of Bendamustine was used to evaluate the rate of drug decomposition in the first order kinetics model.

Cn1c(CCCC(=O)O)nc2cc(N(CCCl)CCCl)ccc21 [bendamustine hydrochloride]
time for which stable in saline solution [1]: 9 h

Cn1c(CCCC(=O)O)nc2cc(N(CCCl)CCCl)ccc21 [Control (phosphate buffer), bendamustine hydrochloride]
half-life at 0.6 mg/mL [2]: 44 min
